{"source": "ChEMBL document CHEMBL4308841", "about": "“Synthesis, in vitro antiproliferative activity, and kinase inhibitory effects of pyrazole-containing diarylureas and diarylamides” (Eur J Med Chem, 2018)"}
{"test_system": "A549", "assay": "Growth inhibition of human A549/ATCC cells assessed as cell growth at 1 uM incubated for 48 hrs by sulforhodamine B assay relative to control", "format": "functional", "settings": "A549, 48 h, read-out: Activity", "units": {"growth at 1 µM": "%"}}
{"smiles": "COc1cc(Cl)cc(-c2nn(-c3cccc(NC(=O)c4cccc(C(F)(F)F)c4)c3)cc2-c2ccncc2)c1", "growth at 1 µM": 75}
{"test_system": "IGROV-1", "assay": "Growth inhibition of human IGROV1 cells assessed as cell growth at 0.01 uM incubated for 48 hrs by sulforhodamine B assay relative to control", "format": "functional", "settings": "IGROV-1, 48 h, read-out: Activity", "units": {"growth at 0.01 µM": "%"}}
{"smiles": "COc1cc(Cl)cc(-c2nn(-c3cccc(NC(=O)c4cccc(C(F)(F)F)c4)c3)cc2-c2ccncc2)c1", "growth at 0.01 µM": 94}
{"test_system": "SK-MEL-2", "assay": "Growth inhibition of human SK-MEL-2 cells assessed as cell growth at 1 uM incubated for 48 hrs by sulforhodamine B assay relative to control", "format": "functional", "settings": "SK-MEL-2, 48 h, read-out: Activity", "units": {"growth at 1 µM": "%"}}
{"smiles": "COc1cc(Cl)cc(-c2nn(-c3cccc(NC(=O)c4cccc(C(F)(F)F)c4)c3)cc2-c2ccncc2)c1", "growth at 1 µM": 56}
{"test_system": "CAKI-1", "assay": "Growth inhibition of human Caki1 cells assessed as cell growth at 1 uM incubated for 48 hrs by sulforhodamine B assay relative to control", "format": "functional", "settings": "CAKI-1, 48 h, read-out: Activity", "units": {"growth at 1 µM": "%"}}
{"smiles": "COc1cc(Cl)cc(-c2nn(-c3cccc(NC(=O)c4cccc(C(F)(F)F)c4)c3)cc2-c2ccncc2)c1", "growth at 1 µM": 90}
{"test_system": "HCT-116", "assay": "Growth inhibition of human HCT116 cells assessed as cell growth at 0.01 uM incubated for 48 hrs by sulforhodamine B assay relative to control", "format": "functional", "settings": "HCT-116, 48 h, read-out: Activity", "units": {"growth at 0.01 µM": "%"}}
{"smiles": "COc1cc(Cl)cc(-c2nn(-c3cccc(NC(=O)c4cccc(C(F)(F)F)c4)c3)cc2-c2ccncc2)c1", "growth at 0.01 µM": 100}
{"test_system": "NCI-H460", "assay": "Growth inhibition of human NCI-H460 cells assessed as cell growth at 1 uM incubated for 48 hrs by sulforhodamine B assay relative to control", "format": "functional", "settings": "NCI-H460, 48 h, read-out: Activity", "units": {"growth at 1 µM": "%"}}
{"smiles": "COc1cc(Cl)cc(-c2nn(-c3cccc(NC(=O)c4cccc(C(F)(F)F)c4)c3)cc2-c2ccncc2)c1", "growth at 1 µM": 93}
{"test_system": "NCI/ADR-RES", "assay": "Growth inhibition of human NCI/ADR-RES cells assessed as cell growth at 0.01 uM incubated for 48 hrs by sulforhodamine B assay relative to control", "format": "functional", "settings": "read-out: Activity", "units": {"growth at 0.01 µM": "%"}}
{"smiles": "COc1cc(Cl)cc(-c2nn(-c3cccc(NC(=O)c4cccc(C(F)(F)F)c4)c3)cc2-c2ccncc2)c1", "growth at 0.01 µM": 103}
{"test_system": "PC-3", "assay": "Growth inhibition of human PC3 cells assessed as cell growth at 1 uM incubated for 48 hrs by sulforhodamine B assay relative to control", "format": "functional", "settings": "PC-3, 48 h, read-out: Activity", "units": {"growth at 1 µM": "%"}}
{"smiles": "COc1cc(Cl)cc(-c2nn(-c3cccc(NC(=O)c4cccc(C(F)(F)F)c4)c3)cc2-c2ccncc2)c1", "growth at 1 µM": 73}
{"test_system": "SK-OV-3", "assay": "Growth inhibition of human SKOV3 cells assessed as cell growth at 100 uM incubated for 48 hrs by sulforhodamine B assay relative to control", "format": "functional", "settings": "SK-OV-3, 48 h, read-out: Activity", "units": {"growth at 100 µM": "%"}}
{"smiles": "COc1cc(Cl)cc(-c2nn(-c3cccc(NC(=O)c4cccc(C(F)(F)F)c4)c3)cc2-c2ccncc2)c1", "growth at 100 µM": 78}
{"test_system": "UACC-257", "assay": "Growth inhibition of human UACC257 cells assessed as cell growth at 0.01 uM incubated for 48 hrs by sulforhodamine B assay relative to control", "format": "functional", "settings": "UACC-257, 48 h, read-out: Activity", "units": {"growth at 0.01 µM": "%"}}
{"smiles": "COc1cc(Cl)cc(-c2nn(-c3cccc(NC(=O)c4cccc(C(F)(F)F)c4)c3)cc2-c2ccncc2)c1", "growth at 0.01 µM": 91}
{"test_system": "MDA-MB-435", "assay": "(§1) Growth inhibition of human MDA-MB-435 cells incubated for 48 hrs by sulforhodamine B assay", "format": "functional, cell-based", "settings": "MDA-MB-435, 48 h, read-out: GI50", "units": {"GI50": "µM"}}
{"smiles": "COc1cc(Cl)cc(-c2nn(-c3cccc(NC(=O)c4cccc(C(F)(F)F)c4)c3)cc2-c2ccncc2)c1", "GI50": "> 100"}
{"test_system": "MDA-MB-435", "assay": "as §1", "format": "functional, cell-based", "settings": "MDA-MB-435, 48 h, read-out: LC50", "units": {"LC50": "µM"}}
{"smiles": "COc1cc(Cl)cc(-c2nn(-c3cccc(NC(=O)c4cccc(C(F)(F)F)c4)c3)cc2-c2ccncc2)c1", "LC50": "> 100"}
{"test_system": "MDA-MB-435", "assay": "as §1", "format": "functional, cell-based", "settings": "MDA-MB-435, 48 h, read-out: TGI", "units": {"TGI": "µM"}}
{"smiles": "COc1cc(Cl)cc(-c2nn(-c3cccc(NC(=O)c4cccc(C(F)(F)F)c4)c3)cc2-c2ccncc2)c1", "TGI": "> 100"}
{"test_system": "MDA-MB-435", "assay": "as §1", "format": "functional, cell-based", "settings": "MDA-MB-435, 48 h, read-out: pGI50 (converted)", "units": {"GI50": "µM"}}
{"smiles": "COc1cc(Cl)cc(-c2nn(-c3cccc(NC(=O)c4cccc(C(F)(F)F)c4)c3)cc2-c2ccncc2)c1", "GI50": "> 100"}
{"test_system": "MDA-MB-435", "assay": "as §1", "format": "functional, cell-based", "settings": "MDA-MB-435, 48 h, read-out: pLC50 (converted)", "units": {"LC50": "µM"}}
{"smiles": "COc1cc(Cl)cc(-c2nn(-c3cccc(NC(=O)c4cccc(C(F)(F)F)c4)c3)cc2-c2ccncc2)c1", "LC50": "> 100"}
{"test_system": "MDA-MB-435", "assay": "as §1", "format": "functional, cell-based", "settings": "MDA-MB-435, 48 h, read-out: pTGI (converted)", "units": {"TGI": "µM"}}
{"smiles": "COc1cc(Cl)cc(-c2nn(-c3cccc(NC(=O)c4cccc(C(F)(F)F)c4)c3)cc2-c2ccncc2)c1", "TGI": "> 100"}
{"test_system": "NCI/ADR-RES", "assay": "Growth inhibition of human NCI/ADR-RES cells assessed as cell growth at 100 uM incubated for 48 hrs by sulforhodamine B assay relative to control", "format": "functional", "settings": "read-out: Activity", "units": {"growth at 100 µM": "%"}}
{"smiles": "COc1cc(Cl)cc(-c2nn(-c3cccc(NC(=O)c4cccc(C(F)(F)F)c4)c3)cc2-c2ccncc2)c1", "growth at 100 µM": 31}
{"test_system": "SK-MEL-28", "assay": "Growth inhibition of human SK-MEL-28 cells assessed as cell growth at 1 uM incubated for 48 hrs by sulforhodamine B assay relative to control", "format": "functional", "settings": "SK-MEL-28, 48 h, read-out: Activity", "units": {"growth at 1 µM": "%"}}
{"smiles": "COc1cc(Cl)cc(-c2nn(-c3cccc(NC(=O)c4cccc(C(F)(F)F)c4)c3)cc2-c2ccncc2)c1", "growth at 1 µM": 92}
{"test_system": "SN12C", "assay": "Growth inhibition of human SN12C cells assessed as cell growth at 100 uM incubated for 48 hrs by sulforhodamine B assay relative to control", "format": "functional", "settings": "read-out: Activity", "units": {"growth at 100 µM": "%"}}
{"smiles": "COc1cc(Cl)cc(-c2nn(-c3cccc(NC(=O)c4cccc(C(F)(F)F)c4)c3)cc2-c2ccncc2)c1", "growth at 100 µM": 52}
{"test_system": "SW-620", "assay": "Growth inhibition of human SW620 cells assessed as cell growth at 0.01 uM incubated for 48 hrs by sulforhodamine B assay relative to control", "format": "functional", "settings": "SW-620, 48 h, read-out: Activity", "units": {"growth at 0.01 µM": "%"}}
{"smiles": "COc1cc(Cl)cc(-c2nn(-c3cccc(NC(=O)c4cccc(C(F)(F)F)c4)c3)cc2-c2ccncc2)c1", "growth at 0.01 µM": 101}
{"test_system": "A498", "assay": "Growth inhibition of human A498 cells assessed as cell growth at 100 uM incubated for 48 hrs by sulforhodamine B assay relative to control", "format": "functional", "settings": "A498, 48 h, read-out: Activity", "units": {"growth at 100 µM": "%"}}
{"smiles": "COc1cc(Cl)cc(-c2nn(-c3cccc(NC(=O)c4cccc(C(F)(F)F)c4)c3)cc2-c2ccncc2)c1", "growth at 100 µM": 59}
{"test_system": "CCRF-CEM", "assay": "Growth inhibition of human CCRF-CEM cells assessed as cell growth at 0.1 uM incubated for 48 hrs by sulforhodamine B assay relative to control", "format": "functional", "settings": "read-out: Activity", "units": {"growth at 0.1 µM": "%"}}
{"smiles": "COc1cc(Cl)cc(-c2nn(-c3cccc(NC(=O)c4cccc(C(F)(F)F)c4)c3)cc2-c2ccncc2)c1", "growth at 0.1 µM": 92}
{"test_system": "LOX IMVI", "assay": "Growth inhibition of human LOXIMVI cells assessed as cell growth at 1 uM incubated for 48 hrs by sulforhodamine B assay relative to control", "format": "functional", "settings": "read-out: Activity", "units": {"growth at 1 µM": "%"}}
{"smiles": "COc1cc(Cl)cc(-c2nn(-c3cccc(NC(=O)c4cccc(C(F)(F)F)c4)c3)cc2-c2ccncc2)c1", "growth at 1 µM": 88}
{"test_system": "A498", "assay": "Growth inhibition of human A498 cells assessed as cell growth at 0.1 uM incubated for 48 hrs by sulforhodamine B assay relative to control", "format": "functional", "settings": "A498, 48 h, read-out: Activity", "units": {"growth at 0.1 µM": "%"}}
{"smiles": "COc1cc(Cl)cc(-c2nn(-c3cccc(NC(=O)c4cccc(C(F)(F)F)c4)c3)cc2-c2ccncc2)c1", "growth at 0.1 µM": 52}
